The results in this text go back to ChEMBL document CHEMBL4689842, “EUbOPEN Chemogenomics Library wave 1” (2021).

SMILES strings stand for the structures.

What all share (format): toxicity, cell-based
For series [1], the system named is Fibroblast. The series is described as follows: Incucyte cell viability with human fibroblast. As to conditions: 10 µM, compound concentration 10 uM.
The subject of series [2] is U2OS. The series is described as follows: Incucyte cell viability with U2OS. As to conditions: human, 10 µM, compound concentration 10 uM.
The subject of series [3] is HEK-293T. The experiment in a line: Incucyte cell viability with HEK293T. Conditions: human, 10 µM, compound concentration 10 uM.
[4] abbreviates: 0 h, replicate number 1, timepoint 0 hours.
[5] abbreviates: 6 h, replicate number 1, timepoint 6 hours.
Setting [6] is: 6 h, replicate number 2, timepoint 6 hours.
Setting [7] is: 12 h, replicate number 1, timepoint 12 hours.
Setting [8] is: 18 h, replicate number 1, timepoint 18 hours.
Setting [9] is: 24 h, replicate number 1, timepoint 24 hours.
Setting [10] is: 12 h, replicate number 2, timepoint 12 hours.
The mark [11] stands for this setting: 18 h, replicate number 2, timepoint 18 hours.
[12] abbreviates: 24 h, replicate number 2, timepoint 24 hours.
Setting [13] is: 0 h, replicate number 2, timepoint 0 hours.
Further: filed as whole numbers so only -1 and 0 and 1 occur.

On to `O=C(Nc1nc2cccc(-c3ccc(CN4CCS(=O)(=O)CC4)cc3)n2n1)C1CC1` [FILGOTINIB], for which the “Growth Rate” value is 0 in series [1] (setting [4]); 1 in series [1] (setting [5]); 0 in series [1] (setting [6]); 0 in series [1] (setting [7]); 0 in series [1] (setting [8]); 0 in series [1] (setting [9]). In addition, the “Growth Rate” value in series [2] (setting [4]) was found to be 1; in series [2] (setting [5]) it was 1; in series [2] (setting [6]), 0; in series [2] (setting [7]), 0; in series [2] (setting [8]), 0; in series [2] (setting [9]), 0. Moreover, the “Growth Rate” value in series [3] (setting [4]), in series [3] (setting [5]), in series [3] (setting [7]), in series [3] (setting [8]) and in series [3] (setting [9]) was 0 throughout.

Turning to `Nc1cc(F)ccc1NC(=O)/C=C/c1cnn(C/C=C/c2ccccc2)c1`, the “Growth Rate” value in series [1] (setting [4]) worked out at 0; in series [1] (setting [10]), 0; in series [1] (setting [8]), 1; in series [1] (setting [11]) it was 0; in series [1] (setting [9]) it was 1; in series [1] (setting [12]), 0. Besides, the “Growth Rate” value in series [2] (setting [13]) was determined as 1; in series [2] (setting [5]), 0; in series [2] (setting [7]), 1; in series [2] (setting [8]) it was 0; in series [2] (setting [9]), 0; in series [3] (setting [4]), 0. Also, the “Growth Rate” value was found to be 0 in series [3] (setting [6]); 1 in series [3] (setting [10]); 1 in series [3] (setting [11]); 1 in series [3] (setting [9]); 0 in series [3] (setting [12]).

With `CCC(=N\O)/C(C)=C/c1ccc(F)c(C)c1` [A-226], the “Growth Rate” value in series [1] (setting [4]) came to 0; in series [1] (setting [5]) it was 0; in series [1] (setting [7]) it was 0; in series [1] (setting [8]), 0; in series [1] (setting [11]) it was 1; in series [1] (setting [9]), 1. The “Growth Rate” value worked out at 0 in series [2] (setting [4]); 1 in series [2] (setting [13]); 0 in series [2] (setting [5]); 1 in series [2] (setting [7]); 0 in series [2] (setting [8]); 1 in series [2] (setting [11]). For the same compound, the “Growth Rate” value stood at 0 in series [2] (setting [9]); 1 in series [2] (setting [12]); 0 in series [3] (setting [13]); 0 in series [3] (setting [5]); 0 in series [3] (setting [7]); 0 in series [3] (setting [8]). Moreover, the “Growth Rate” value in series [3] (setting [9]) is recorded as 0.

In the case of `CNC[C@H](O)c1cccc(O)c1` [PHENYLEPHRINE], the “Growth Rate” value is given as 1 in series [1] (setting [4]); 0 in series [1] (setting [13]); 1 in series [1] (setting [7]); 1 in series [1] (setting [11]); 0 in series [2] (setting [13]); 0 in series [2] (setting [6]). Also, the “Growth Rate” value turned out to be 1 in series [2] (setting [7]); 1 in series [2] (setting [8]); 1 in series [2] (setting [9]); 0 in series [3] (setting [4]); 0 in series [3] (setting [5]); 0 in series [3] (setting [7]). Further, the “Growth Rate” value in series [3] (setting [8]) was 0; in series [3] (setting [9]), 1; in series [3] (setting [12]) it was 0.

Consider `O=c1ccn([C@@H]2O[C@H](COP(=O)([O-])OP(=O)([O-])O)[C@@H](O)[C@H]2O)c(=O)[nH]1.[Na+].[Na+]`, for which the “Growth Rate” value is on record as 0 in series [1] (setting [4]); 1 in series [1] (setting [6]); 1 in series [1] (setting [10]); 1 in series [1] (setting [8]); 1 in series [1] (setting [9]); 1 in series [2] (setting [4]). In addition, the “Growth Rate” value is recorded as 0 in series [2] (setting [13]); 0 in series [2] (setting [5]); 1 in series [2] (setting [6]); 1 in series [2] (setting [7]); 0 in series [2] (setting [8]); 1 in series [2] (setting [11]). The “Growth Rate” value was found to be 1 in series [2] (setting [9]); 1 in series [3] (setting [4]); 0 in series [3] (setting [13]); 0 in series [3] (setting [5]); 1 in series [3] (setting [6]); 1 in series [3] (setting [7]). Moreover, the “Growth Rate” value in series [3] (setting [8]) and in series [3] (setting [9]) was 1 throughout.

For `Cc1cc([C@@H](C)Nc2cccc(-c3cc(C)c(C(=O)N[C@@H](C)C(=O)O)c(C)c3)c2)ccc1Cl`, the “Growth Rate” value in series [1] (setting [4]) is given as 0; in series [1] (setting [5]), 1; in series [1] (setting [6]), 0; in series [1] (setting [7]), 1; in series [1] (setting [10]), 0; in series [1] (setting [8]), 1. Moreover, the “Growth Rate” value in series [1] (setting [9]) amounted to 0; in series [2] (setting [4]), 0; in series [2] (setting [13]) it was 1; in series [2] (setting [6]), 0; in series [2] (setting [7]), 1; in series [2] (setting [8]), 0. Besides, the “Growth Rate” value in series [2] (setting [11]) was found to be 1; in series [2] (setting [9]) it was 1; in series [3] (setting [4]), 1; in series [3] (setting [13]) it was 0; in series [3] (setting [5]) it was 0; in series [3] (setting [7]), 0. Moreover, the “Growth Rate” value in series [3] (setting [8]) and in series [3] (setting [9]) was 0 in each case.

Regarding `CC1(C)CCC(C)(C)c2cc(NC(=O)c3ccc(C(=O)O)cc3)ccc21` [TAMIBAROTENE], the “Growth Rate” value amounted to 0 in series [1] (setting [4]); 0 in series [1] (setting [5]); 0 in series [1] (setting [7]); 1 in series [1] (setting [10]); 0 in series [1] (setting [8]); 1 in series [1] (setting [9]). Besides, the “Growth Rate” value in series [2] (setting [4]) is 0; in series [2] (setting [7]), 0; in series [2] (setting [10]) it was 1; in series [2] (setting [8]) it was 0; in series [2] (setting [11]), 1; in series [2] (setting [9]) it was 1. The “Growth Rate” value in series [3] (setting [4]) was determined as 0; in series [3] (setting [5]) it was 1; in series [3] (setting [7]) it was 1; in series [3] (setting [8]), 1; in series [3] (setting [9]), 1.

For `CC(=O)N1CCC(c2ccc(C(=O)NC(=N)N)cc2C(F)(F)F)CC1` [BI 9627], the “Growth Rate” value worked out at 0 in series [1] (setting [4]); 1 in series [1] (setting [13]); 1 in series [1] (setting [5]); 0 in series [1] (setting [6]); 0 in series [1] (setting [7]); 1 in series [1] (setting [8]). In addition, the “Growth Rate” value is 0 in series [1] (setting [11]); 0 in series [1] (setting [9]); 0 in series [2] (setting [13]); 1 in series [2] (setting [5]); 1 in series [2] (setting [7]); 1 in series [2] (setting [8]). Also, the “Growth Rate” value in series [2] (setting [9]) came to 1; in series [3] (setting [4]), 0; in series [3] (setting [6]), 1; in series [3] (setting [7]), 1; in series [3] (setting [8]), 1; in series [3] (setting [9]) it was 1.

Consider `CN(C)C(=O)c1cc2cnc(Nc3ccc(N4CCNCC4)cn3)nc2n1C1CCCC1` [RIBOCICLIB], for which the “Growth Rate” value is listed as 0 in series [1] (setting [4]); 0 in series [1] (setting [6]); 0 in series [1] (setting [10]); 1 in series [1] (setting [11]); 1 in series [1] (setting [9]); 0 in series [2] (setting [4]). Also, the “Growth Rate” value in series [2] (setting [5]) is 0; in series [2] (setting [6]) it was 1; in series [2] (setting [7]), 0; in series [2] (setting [10]) it was 1; in series [2] (setting [8]), 0; in series [2] (setting [11]), 1. Also, the “Growth Rate” value in series [2] (setting [9]) amounted to 0; in series [2] (setting [12]), 1; in series [3] (setting [4]), 0; in series [3] (setting [13]), 1; in series [3] (setting [5]), 1; in series [3] (setting [6]), 0. Moreover, the “Growth Rate” value in series [3] (setting [10]) is 0; in series [3] (setting [8]), 1; in series [3] (setting [11]) it was 0; in series [3] (setting [9]), 1; in series [3] (setting [12]) it was 0.

Take `CC(=O)C1=C(C)N(c2cccc(C(F)(F)F)c2)C(=O)N[C@@H]1c1ccc(C#N)nc1` [BAY-678]: the “Growth Rate” value was found to be 1 in series [1] (setting [4]); 0 in series [1] (setting [13]); 1 in series [1] (setting [5]); 0 in series [1] (setting [6]); 0 in series [1] (setting [7]); 0 in series [1] (setting [8]). Also, the “Growth Rate” value in series [1] (setting [9]) is recorded as 0; in series [2] (setting [4]) it was 0; in series [2] (setting [5]), 0; in series [2] (setting [7]), 0; in series [2] (setting [10]), 1; in series [2] (setting [8]) it was 0. The “Growth Rate” value is reported as 0 in series [2] (setting [9]); 0 in series [3] (setting [4]); 1 in series [3] (setting [13]); 1 in series [3] (setting [8]); 1 in series [3] (setting [9]).
